Columns and labels:
[1] = target: Coagulation factor VII/tissue factor (Homo sapiens, UniProt P08709); experiment: Inhibition of human soluble tissue factor/factor VIIa expressed in Origami B (DE3) using D-Ile-Pro-Arg-pNA as substrate after 30 mins by spectrophotometric analysis
Plasma = experiment: Anticoagulant activity in factor VII-deficient human plasma assessed as concentration required to prolong clotting time by two-fold; assay type: functional
[2] = Permeability of the compound after 4 hrs by PAMPA; assay type: ADME; settings: read-out: permeability

Chain of Coagulation factor VII/tissue factor (P08709 61-212 limits assumed): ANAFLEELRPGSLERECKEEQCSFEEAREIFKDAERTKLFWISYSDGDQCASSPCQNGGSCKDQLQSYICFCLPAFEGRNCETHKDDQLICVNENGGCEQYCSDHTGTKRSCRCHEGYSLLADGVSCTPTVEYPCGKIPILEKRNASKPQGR
Chain of Coagulation factor VII/tissue factor (P08709 213-466 limits assumed): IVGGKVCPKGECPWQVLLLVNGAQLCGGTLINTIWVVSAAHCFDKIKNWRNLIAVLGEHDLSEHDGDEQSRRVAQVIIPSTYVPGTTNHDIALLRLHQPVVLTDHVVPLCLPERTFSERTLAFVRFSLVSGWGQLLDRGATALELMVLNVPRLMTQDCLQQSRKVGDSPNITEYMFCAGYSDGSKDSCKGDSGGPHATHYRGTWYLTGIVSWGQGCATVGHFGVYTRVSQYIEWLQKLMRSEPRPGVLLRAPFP
Chain of Coagulation factor VII/tissue factor (P13726 33-295 partner limits assumed): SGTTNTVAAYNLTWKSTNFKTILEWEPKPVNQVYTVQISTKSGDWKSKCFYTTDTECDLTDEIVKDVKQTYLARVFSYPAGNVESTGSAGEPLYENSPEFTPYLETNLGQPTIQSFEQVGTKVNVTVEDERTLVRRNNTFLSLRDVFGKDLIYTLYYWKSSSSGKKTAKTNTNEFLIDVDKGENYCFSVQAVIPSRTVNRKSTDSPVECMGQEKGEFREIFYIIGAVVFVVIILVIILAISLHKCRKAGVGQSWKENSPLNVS

Ki [1]	Papp at 4 h [2]	Compound	2PT (Plasma)
16 mM	–	CC(O)c1cccc2ccccc12 (centres undefined)	–
13 mM	–	COc1cc(Br)ccc1O	–
13 mM	–	COC(=O)c1cccc2[nH]ccc12	–
5.7 mM	–	O=C(O)c1c[nH]c2ccc(Cl)cc12	–
0.00013 mM	1.8 ×10⁻⁶ cm/s	COC(=O)Nc1ccc(S(=O)(=O)C(C)C)c([C@H]2CCCN2C(=O)[C@H](Nc2ccc3c(c2)C(=O)NCC3)c2cc(OC)c(OC)cc2F)c1	160 µM
4.3 mM	–	Clc1ccc2[nH]ccc2c1	–
3.5 mM	–	O=C(O)c1cc2cc(Cl)ccc2[nH]1 [5-CHLOROINDOLE-2-CARBOXYLIC ACID]	–
0.24 mM	–	N=C(N)c1ccccc1 [BENZAMIDINE]	–
13 mM	–	OCc1ccc(Cl)cc1Cl [DICHLOROBENZYL ALCOHOL]	–
8 mM	–	NC(=O)c1cccnc1 [NIACINAMIDE]	–

Compound	Ki [1]	Papp at 4 h [2]	2PT (Plasma)
Clc1ccc2[nH]nnc2c1	8.7 mM	–	–
COc1cc(Cl)ccc1O	16 mM	–	–

Reference: ChEMBL document CHEMBL3414465, “Discovery of novel P1 groups for coagulation factor VIIa inhibition using fragment-based screening” (J Med Chem, 2015)
